US20220396569A1 (Carmot Therapeutics, Inc., priority 2021, published 2022)

target: T1, human GLP-1 receptor (Homo sapiens, UniProt P43220); test: GLP-1R cAMP Assay (HitHunter cAMP accumulation); type: cell-based; conditions: cAMP accumulation, CHO cells stably overexpressing human GLP-1 receptor, 30 min treatment; read-out: EC50
T1 construct: expressed in transfected cells
How it was run: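 CHO cells stably expressing human GLP-1R, 10,000 cells/well in HBSS with 10 mM HEPES and 625 μM IBMX, were mixed with anti-cAMP antibody reagent. Compound was applied as a 20-point dose response in triplicate for 30 min. After lysis and overnight detection, luminescence was read and dose-response curves analysed.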

T1 sequence (P43220 24-463): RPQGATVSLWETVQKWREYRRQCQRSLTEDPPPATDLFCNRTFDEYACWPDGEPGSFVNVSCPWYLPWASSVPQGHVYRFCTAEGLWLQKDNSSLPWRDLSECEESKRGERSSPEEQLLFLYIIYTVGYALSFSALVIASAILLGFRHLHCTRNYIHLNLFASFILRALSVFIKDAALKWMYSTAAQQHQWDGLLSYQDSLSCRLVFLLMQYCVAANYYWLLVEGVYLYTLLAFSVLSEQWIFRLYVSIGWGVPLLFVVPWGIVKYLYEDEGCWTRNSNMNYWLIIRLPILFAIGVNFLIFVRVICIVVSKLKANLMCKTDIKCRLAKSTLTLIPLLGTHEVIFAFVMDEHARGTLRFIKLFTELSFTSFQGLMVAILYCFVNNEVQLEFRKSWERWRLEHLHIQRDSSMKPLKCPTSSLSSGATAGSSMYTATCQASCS

EC50 [µM] | Compound
< 0.05 | O=C(O)c1ccc2nc(CN3CC[C@H](Oc4ccnc(COc5ccc(Cl)cc5F)n4)C3)n(C[C@@H]3CCO3)c2c1 [Example 360, 2-(((S)-3-((2-((4-Chloro-2-fluorophenoxy)methyl)pyrimidin-4-yl)oxy)pyrrolidin-1-yl)methyl)-1-(((S)-oxetan-2-yl)methyl)-1H-benzo[d]imidazole-6-carboxylic acid]
< 0.05 | O=C(O)c1ccc2nc(CN3CCC(c4cccc(COc5ccc(Cl)cc5Cl)c4)C3)n(C[C@@H]3CCO3)c2c1 (stereo partly drawn) [Example 383, 2-((3-(3-((2,4-Dichlorophenoxy)methyl)phenyl)pyrrolidin-1-yl)methyl)-1-(((S)-oxetan-2-yl)methyl)-1H-benzo[d]imidazole-6-carboxylic acid]
< 0.05 | O=C(O)c1ccc2nc(CN3CC=C(c4cccc(COc5ccc(Cl)cc5Cl)n4)C3)n(C[C@@H]3CCO3)c2c1 [Example 384, (S)-2-((3-(6-((2,4-Dichlorophenoxy)methyl)pyridin-2-yl)-2,5-dihydro-1H-pyrrol-1-yl)methyl)-1-(oxetan-2-ylmethyl)-1H-benzo[d]imidazole-6-carboxylic acid]
< 0.05 | O=C(O)c1ccc2nc(CN3CCC(c4cccc(COc5ccc(Cl)cc5Cl)n4)C3)n(C[C@@H]3CCO3)c2c1 (stereo partly drawn) [Example 386, 2-((3-(6-((2,4-Dichlorophenoxy)methyl)pyridin-2-yl)pyrrolidin-1-yl)methyl)-1-(((S)-oxetan-2-yl)methyl)-1H-benzo[d]imidazole-6-carboxylic acid]
< 0.05 | O=C(O)c1ccc2nc(CN3CC=C(c4cc(COc5ccc(Cl)cc5Cl)ccn4)C3)n(Cc3cnco3)c2c1 [Example 390, 2-((3-(4-((2,4-Dichlorophenoxy)methyl)pyridin-2-yl)-2,5-dihydro-1H-pyrrol-1-yl)methyl)-1-(oxazol-5-ylmethyl)-1H-benzo[d]imidazole-6-carboxylic acid]
< 0.05 | N#Cc1ccc(OCc2nccc(C3=CCN(Cc4nc5ccc(C(=O)O)cc5n4C[C@@H]4CCO4)C3)n2)c(F)c1 [Example 395, (S)-2-((3-(2-((4-Cyano-2-fluorophenoxy)methyl)pyrimidin-4-yl)-2,5-dihydro-1H-pyrrol-1-yl)methyl)-1-(oxetan-2-ylmethyl)-1H-benzo[d]imidazole-6-carboxylic acid]
< 0.05 | O=C(O)c1ccc2nc(CN3CC=C(c4cncc(COc5ccc(Cl)cc5F)n4)C3)n(C[C@@H]3CCO3)c2c1 [Example 396, (S)-2-((3-(6-((4-Chloro-2-fluorophenoxy)methyl)pyrazin-2-yl)-2,5-dihydro-1H-pyrrol-1-yl)methyl)-1-(oxetan-2-ylmethyl)-1H-benzo[d]imidazole-6-carboxylic acid]
< 0.05 | O=C(O)c1ccc2nc(CN3CCC(c4cc(COc5ccc(Cl)cc5F)ccn4)C3)n(C[C@@H]3CCO3)c2c1 (stereo partly drawn) [Example 397, 2-((3-(4-((4-Chloro-2-fluorophenoxy)methyl)pyridin-2-yl)pyrrolidin-1-yl)methyl)-1-(((S)-oxetan-2-yl)methyl)-1H-benzo[d]imidazole-6-carboxylic acid]
< 0.05 | O=C(O)c1ccc2nc(CN3CC=C(c4ccc(F)c(COc5ccc(Cl)cc5F)n4)C3)n(C[C@@H]3CCO3)c2c1 [Example 407, (S)-2-((3-(6-((4-Chloro-2-fluorophenoxy)methyl)-5-fluoropyridin-2-yl)-2,5-dihydro-1H-pyrrol-1-yl)methyl)-1-(oxetan-2-ylmethyl)-1H-benzo[d]imidazole-6-carboxylic acid]
< 0.05 | O=C(O)c1ccc2nc(CN3CC=C(c4nccc(COc5ccc(Cl)cc5F)n4)C3)n(C[C@@H]3CCO3)c2c1 [Example 435, (S)-2-((3-(4-((4-Chloro-2-fluorophenoxy)methyl)pyrimidin-2-yl)-2,5-dihydro-1H-pyrrol-1-yl)methyl)-1-(oxetan-2-ylmethyl)-1H-benzo[d]imidazole-6-carboxylic acid]
< 0.05 | O=C(O)c1cc(F)c2nc(Cc3ccc(Oc4ccnc(COc5ccc(Cl)cc5F)c4)cc3F)n(C[C@@H]3CCO3)c2c1 [Example 459, (S)-2-(4-((2-((4-Chloro-2-fluorophenoxy)methyl)pyridin-4-yl)oxy)-2-fluorobenzyl)-4-fluoro-1-(oxetan-2-ylmethyl)-1H-benzo[d]imidazole-6-carboxylic acid]
< 0.05 | CCn1cncc1Cn1c(Cc2ccc(Oc3ccnc(COc4ccc(C#N)cc4F)n3)cc2F)nc2ccc(C(=O)O)cc21 [Example 460, 2-(4-((2-((4-Cyano-2-fluorophenoxy)methyl)pyrimidin-4-yl)oxy)-2-fluorobenzyl)-1-((1-ethyl-1H-imidazol-5-yl)methyl)-1H-benzo[d]imidazole-6-carboxylic acid]
< 0.05 | O=C(O)c1cc(F)c2nc(Cc3ccc(Oc4ccnc(COc5ccc(Cl)cc5F)c4)c(F)c3)n(C[C@@H]3CCO3)c2c1 [Example 471, (S)-2-(4-((2-((4-Chloro-2-fluorophenoxy)methyl)pyridin-4-yl)oxy)-3-fluorobenzyl)-4-fluoro-1-(oxetan-2-ylmethyl)-1H-benzo[d]imidazole-6-carboxylic acid]
< 0.05 | O=C(O)c1ccc2nc(CN3CC=C(c4cnc(COc5ccc(Cl)cc5Cl)o4)C3)n(C[C@@H]3CCO3)c2c1 [Example 474, (S)-2-((3-(2-((2,4-Dichlorophenoxy)methyl)oxazol-5-yl)-2,5-dihydro-1H-pyrrol-1-yl)methyl)-1-(oxetan-2-ylmethyl)-1H-benzo[d]imidazole-6-carboxylic acid]
